According to ChEMBL document CHEMBL3297661, “1-Substituted-5-[(3,5-dinitrobenzyl)sulfanyl]-1H-tetrazoles and their isosteric analogs: A new class of selective antitubercular agents active against drug-susceptible and multidrug-resistant mycobacteria” (Eur J Med Chem, 2014):
≈ marks a conversion by molar mass, not a printed value.

Experiments:
Staphylococcus aureus [1] = assay: Antibacterial activity against Staphylococcus aureus ATCC 6538 after 24 hrs by broth microdilution method; format: functional; conditions: ATCC 6538, 24 h
Staphylococcus aureus [2] = assay: Antibacterial activity against methicillin-resistant Staphylococcus aureus H 5996/08 after 24 hrs by broth microdilution method; format: functional; conditions: H 5996/08, 24 h
[3] = tested on: Staphylococcus epidermidis; assay: Antibacterial activity against Staphylococcus epidermidis H 6966/08 after 24 hrs by broth microdilution method; format: functional; conditions: H 6966/08, 24 h
Enterococcus faecalis [4] = assay: Antibacterial activity against Enterococcus faecalis J 14365/08 after 24 hrs by broth microdilution method; format: functional; conditions: J 14365/08, 24 h
Candida albicans [5] = assay: Antifungal activity against Candida albicans ATCC 44859 after 24 hrs by broth microdilution method; format: functional; conditions: ATCC 44859, 24 h
Candida tropicalis [6] = assay: Antifungal activity against Candida tropicalis 156 after 24 hrs by broth microdilution method; format: functional; conditions: Candida tropicalis, 156, 24 h
Pichia kudriavzevii [7] = assay: Antifungal activity against Candida krusei E28 after 24 hrs by broth microdilution method; format: functional; conditions: E28, 24 h
Nakaseomyces glabratus [8] = assay: Antifungal activity against Candida glabrata 20/I after 24 hrs by broth microdilution method; format: functional
Trichosporon asahii [9] = assay: Antifungal activity against Trichosporon asahii 1188 after 24 hrs by broth microdilution method; format: functional; conditions: Trichosporon asahii, 1188, 24 h
Aspergillus fumigatus [10] = assay: Antifungal activity against Aspergillus fumigatus 231 after 24 hrs by broth microdilution method; format: functional, organism-based; conditions: Aspergillus fumigatus, 231, 24 h
Lichtheimia corymbifera [11] = assay: Antifungal activity against Absidia corymbifera 272 after 24 hrs by broth microdilution method; format: functional, organism-based; conditions: Lichtheimia corymbifera, 272, 24 h
[12] = tested on: Trichophyton mentagrophytes; assay: Antifungal activity against Trichophyton mentagrophytes 445 after 72 hrs by broth microdilution method; format: functional, organism-based; conditions: Trichophyton mentagrophytes, 445, 72 h
Escherichia coli [13] = assay: Antibacterial activity against Escherichia coli ATCC 8739 after 24 hrs by broth microdilution method; format: functional
Klebsiella pneumoniae [14] = assay: Antibacterial activity against Klebsiella pneumoniae D 11750/08 after 24 hrs by broth microdilution method; format: functional
Klebsiella pneumoniae [15] = assay: Antibacterial activity against extended spectrum beta-lactamase producing Klebsiella pneumoniae J 14368/08 after 24 hrs by broth microdilution method; format: functional
Pseudomonas aeruginosa [16] = assay: Antibacterial activity against Pseudomonas aeruginosa ATCC 9027 after 24 hrs by broth microdilution method; format: functional
Pseudomonas aeruginosa [17] = assay: Antibacterial activity against Pseudomonas aeruginosa ATCC 9027 after 48 hrs by broth microdilution method; format: functional; conditions: ATCC 9027, 48 h
Candida albicans [18] = assay: Antifungal activity against Candida albicans ATCC 44859 after 48 hrs by broth microdilution method; format: functional; conditions: ATCC 44859, 48 h
Candida tropicalis [19] = assay: Antifungal activity against Candida tropicalis 156 after 48 hrs by broth microdilution method; format: functional; conditions: Candida tropicalis, 156, 48 h
Pichia kudriavzevii [20] = assay: Antifungal activity against Candida krusei E28 after 48 hrs by broth microdilution method; format: functional; conditions: E28, 48 h
Nakaseomyces glabratus [21] = assay: Antifungal activity against Candida glabrata 20/I after 48 hrs by broth microdilution method; format: functional
Trichosporon asahii [22] = assay: Antifungal activity against Trichosporon asahii 1188 after 48 hrs by broth microdilution method; format: functional; conditions: Trichosporon asahii, 1188, 48 h
Aspergillus fumigatus [23] = assay: Antifungal activity against Aspergillus fumigatus 231 after 48 hrs by broth microdilution method; format: functional, organism-based; conditions: Aspergillus fumigatus, 231, 48 h
Lichtheimia corymbifera [24] = assay: Antifungal activity against Absidia corymbifera 272 after 48 hrs by broth microdilution method; format: functional, organism-based; conditions: Lichtheimia corymbifera, 272, 48 h
[25] = tested on: Trichophyton mentagrophytes; assay: Antifungal activity against Trichophyton mentagrophytes 445 after 120 hrs by broth microdilution method; format: functional, organism-based; conditions: Trichophyton mentagrophytes, 445, 120 h
[26] = tested on: Mycobacterium tuberculosis; assay: Antimycobacterial activity against Mycobacterium tuberculosis CNCTC My 331/88 after 14 days by micromethod; format: functional; conditions: CNCTC My 331/88, 336 h
[27] = tested on: Mycobacterium tuberculosis; assay: Antimycobacterial activity against Mycobacterium tuberculosis CNCTC My 331/88 after 21 days by micromethod; format: functional; conditions: CNCTC My 331/88, 504 h
Mycobacterium avium [28] = assay: Antimycobacterial activity against Mycobacterium avium CNCTC My 330/88 after 14 days by micromethod; format: functional; conditions: CNCTC My 330/88, 336 h
Mycobacterium avium [29] = assay: Antimycobacterial activity against Mycobacterium avium CNCTC My 330/88 after 21 days by micromethod; format: functional; conditions: CNCTC My 330/88, 504 h
Mycobacterium kansasii [30] = assay: Antimycobacterial activity against Mycobacterium kansasii CNCTC My 235/80 after 7 days by micromethod; format: functional; conditions: CNCTC My 235/80, 168 h
Mycobacterium kansasii [31] = assay: Antimycobacterial activity against Mycobacterium kansasii CNCTC My 235/80 after 14 days by micromethod; format: functional; conditions: CNCTC My 235/80, 336 h
Mycobacterium kansasii [32] = assay: Antimycobacterial activity against Mycobacterium kansasii CNCTC My 235/80 after 21 days by micromethod; format: functional; conditions: CNCTC My 235/80, 504 h
Mycobacterium kansasii [33] = assay: Antimycobacterial activity against Mycobacterium kansasii 6509/96 after 7 days by micromethod; format: functional; conditions: 6509/96, 168 h
Mycobacterium kansasii [34] = assay: Antimycobacterial activity against Mycobacterium kansasii 6509/96 after 14 days by micromethod; format: functional; conditions: 6509/96, 336 h
Mycobacterium kansasii [35] = assay: Antimycobacterial activity against Mycobacterium kansasii 6509/96 after 21 days by micromethod; format: functional; conditions: 6509/96, 504 h
Staphylococcus aureus [36] = assay: Antibacterial activity against Staphylococcus aureus ATCC 6538 after 48 hrs by broth microdilution method; format: functional; conditions: ATCC 6538, 48 h
Staphylococcus aureus [37] = assay: Antibacterial activity against methicillin-resistant Staphylococcus aureus H 5996/08 after 48 hrs by broth microdilution method; format: functional; conditions: H 5996/08, 48 h
[38] = tested on: Staphylococcus epidermidis; assay: Antibacterial activity against Staphylococcus epidermidis H 6966/08 after 48 hrs by broth microdilution method; format: functional; conditions: H 6966/08, 48 h
Enterococcus faecalis [39] = assay: Antibacterial activity against Enterococcus faecalis J 14365/08 after 48 hrs by broth microdilution method; format: functional; conditions: J 14365/08, 48 h
Escherichia coli [40] = assay: Antibacterial activity against Escherichia coli ATCC 8739 after 48 hrs by broth microdilution method; format: functional; conditions: ATCC 8739, ATCC 8739, 48 h
Klebsiella pneumoniae [41] = assay: Antibacterial activity against Klebsiella pneumoniae D 11750/08 after 48 hrs by broth microdilution method; format: functional; conditions: D 11750/08, 48 h
Klebsiella pneumoniae [42] = assay: Antibacterial activity against extended spectrum beta-lactamase producing Klebsiella pneumoniae J 14368/08 after 48 hrs by broth microdilution method; format: functional; conditions: J 14368/08, 48 h

CN[C@H](CC(C)C)C(=O)N[C@H]1C(=O)N[C@@H](CC(N)=O)C(=O)N[C@H]2C(=O)N[C@H]3C(=O)N[C@H](C(=O)N[C@H](C(=O)O)c4cc(O)cc(O)c4-c4cc3ccc4O)[C@H](O)c3ccc(c(Cl)c3)Oc3cc2cc(c3O[C@@H]2O[C@H](CO)[C@@H](O)[C@H](O)[C@H]2O[C@H]2C[C@](C)(N)[C@H](O)[C@H](C)O2)Oc2ccc(cc2Cl)[C@H]1O [VANCOMYCIN]
IC95 (Staphylococcus aureus [1]): 0.35 µM
IC95 (Staphylococcus aureus [2]): 0.35 µM
IC95 [3]: 0.35 µM
IC95 (Enterococcus faecalis [4]): 0.7 µM

C[C@@H]1[C@H](O)[C@@H](C)/C=C/C=C/C=C/C=C/C=C/C=C/C=C/[C@H](O[C@@H]2O[C@H](C)[C@@H](O)[C@H](N)[C@@H]2O)C[C@@H]2O[C@](O)(C[C@@H](O)C[C@@H](O)[C@H](O)CC[C@@H](O)C[C@@H](O)CC(=O)O[C@H]1C)C[C@H](O)[C@H]2C(=O)O [AMPHOTERICIN B]
IC80 (Candida albicans [5]): 0.54 µM
IC80 (Candida tropicalis [6]): 0.54 µM
IC80 (Pichia kudriavzevii [7]): 1 µM
IC80 (Nakaseomyces glabratus [8]): 0.54 µM
IC80 (Trichosporon asahii [9]): 0.27 µM
IC50 (Aspergillus fumigatus [10]): 0.54 µM
IC50 (Lichtheimia corymbifera [11]): 1 µM
IC50 [12]: 0.54 µM

GENTAMICIN
IC95 (Escherichia coli [13]): 0.26 µM
IC95 (Klebsiella pneumoniae [14]): 0.26 µM
IC95 (Klebsiella pneumoniae [15]): 0.26 µM
IC95 (Pseudomonas aeruginosa [16]): 1 µM

O=C(O)c1cccc(-n2nnnc2SCc2cc([N+](=O)[O-])cc([N+](=O)[O-])c2)c1
IC95 (Pseudomonas aeruginosa [17]): > 500 µM
IC80 (Candida albicans [5]): > 500 µM
IC80 (Candida albicans [18]): > 500 µM
IC80 (Candida tropicalis [6]): > 500 µM
IC80 (Candida tropicalis [19]): > 500 µM
IC80 (Pichia kudriavzevii [7]): > 500 µM
IC80 (Pichia kudriavzevii [20]): > 500 µM
IC80 (Nakaseomyces glabratus [8]): > 500 µM
IC80 (Nakaseomyces glabratus [21]): > 500 µM
IC80 (Trichosporon asahii [9]): > 500 µM
IC80 (Trichosporon asahii [22]): > 500 µM
IC50 (Aspergillus fumigatus [10]): > 500 µM
IC50 (Aspergillus fumigatus [23]): > 500 µM
IC50 (Lichtheimia corymbifera [11]): > 500 µM
IC50 (Lichtheimia corymbifera [24]): > 500 µM
IC50 [12]: > 500 µM
IC50 [25]: > 500 µM
MIC [26]: 1000 µM (≈ 402 µg/mL)
MIC [27]: 1000 µM (≈ 402 µg/mL)
MIC (Mycobacterium avium [28]): 1000 µM (≈ 402 µg/mL)
MIC (Mycobacterium avium [29]): 1000 µM (≈ 402 µg/mL)
MIC (Mycobacterium kansasii [30]): 500 µM (≈ 201 µg/mL)
MIC (Mycobacterium kansasii [31]): 1000 µM (≈ 402 µg/mL)
MIC (Mycobacterium kansasii [32]): 1000 µM (≈ 402 µg/mL)
MIC (Mycobacterium kansasii [33]): 1000 µM (≈ 402 µg/mL)
MIC (Mycobacterium kansasii [34]): 1000 µM (≈ 402 µg/mL)
MIC (Mycobacterium kansasii [35]): 1000 µM (≈ 402 µg/mL)
IC95 (Staphylococcus aureus [1]): > 500 µM
IC95 (Staphylococcus aureus [36]): > 500 µM
IC95 (Staphylococcus aureus [2]): > 500 µM
IC95 (Staphylococcus aureus [37]): > 500 µM
IC95 [3]: 500 µM
IC95 [38]: > 500 µM
IC95 (Enterococcus faecalis [4]): > 500 µM
IC95 (Enterococcus faecalis [39]): > 500 µM
IC95 (Escherichia coli [13]; ATCC 8739, ATCC 8739, 24 h): > 500 µM
IC95 (Escherichia coli [40]): > 500 µM
IC95 (Klebsiella pneumoniae [14]; D 11750/08, 24 h): > 500 µM
IC95 (Klebsiella pneumoniae [41]): > 500 µM
IC95 (Klebsiella pneumoniae [15]; J 14368/08, 24 h): > 500 µM
IC95 (Klebsiella pneumoniae [42]): > 500 µM
IC95 (Pseudomonas aeruginosa [16]; ATCC 9027, 24 h): > 500 µM

O=[N+]([O-])c1cc(CSc2cccc[n+]2[O-])cc([N+](=O)[O-])c1
IC95 (Pseudomonas aeruginosa [17]): > 500 µM
IC80 (Candida albicans [5]): > 500 µM
IC80 (Candida albicans [18]): > 500 µM
IC80 (Candida tropicalis [6]): > 500 µM
IC80 (Candida tropicalis [19]): > 500 µM
IC80 (Pichia kudriavzevii [7]): > 500 µM
IC80 (Pichia kudriavzevii [20]): > 500 µM
IC80 (Nakaseomyces glabratus [8]): > 500 µM
IC80 (Nakaseomyces glabratus [21]): > 500 µM
IC80 (Trichosporon asahii [9]): > 500 µM
IC80 (Trichosporon asahii [22]): > 500 µM
IC50 (Aspergillus fumigatus [10]): > 500 µM
IC50 (Aspergillus fumigatus [23]): > 500 µM
IC50 (Lichtheimia corymbifera [11]): > 500 µM
IC50 (Lichtheimia corymbifera [24]): > 500 µM
IC50 [12]: > 500 µM
IC50 [25]: > 500 µM
MIC [26]: 62 µM (≈ 19.1 µg/mL)
MIC [27]: 62 µM (≈ 19.1 µg/mL)
MIC (Mycobacterium avium [28]): 500 µM (≈ 154 µg/mL)
MIC (Mycobacterium avium [29]): 1000 µM (≈ 307 µg/mL)
MIC (Mycobacterium kansasii [30]): 16 µM (≈ 4.92 µg/mL)
MIC (Mycobacterium kansasii [31]): 32 µM (≈ 9.83 µg/mL)
MIC (Mycobacterium kansasii [32]): 32 µM (≈ 9.83 µg/mL)
MIC (Mycobacterium kansasii [33]): 125 µM (≈ 38.4 µg/mL)
MIC (Mycobacterium kansasii [34]): 125 µM (≈ 38.4 µg/mL)
MIC (Mycobacterium kansasii [35]): 125 µM (≈ 38.4 µg/mL)
IC95 (Staphylococcus aureus [1]): > 500 µM
IC95 (Staphylococcus aureus [36]): > 500 µM
IC95 (Staphylococcus aureus [2]): > 500 µM
IC95 (Staphylococcus aureus [37]): > 500 µM
IC95 [3]: > 500 µM
IC95 [38]: > 500 µM
IC95 (Enterococcus faecalis [4]): > 500 µM
IC95 (Enterococcus faecalis [39]): > 500 µM
IC95 (Escherichia coli [13]; ATCC 8739, ATCC 8739, 24 h): > 500 µM
IC95 (Escherichia coli [40]): > 500 µM
IC95 (Klebsiella pneumoniae [14]; D 11750/08, 24 h): > 500 µM
IC95 (Klebsiella pneumoniae [41]): > 500 µM
IC95 (Klebsiella pneumoniae [15]; J 14368/08, 24 h): > 500 µM
IC95 (Klebsiella pneumoniae [42]): > 500 µM
IC95 (Pseudomonas aeruginosa [16]; ATCC 9027, 24 h): > 500 µM
